Data set [1] in a line: Solubility and stability in solvents (observation). The data set is classed as physicochemical. The conditions noted are these: for stability in DMSO: strongly coordinating media (DMSO). An excerpt:
To further explore the effect of lability of coordination sites on the biological activity of this type of cyclopalladated complexes, we decided to modify the second arm in the O,N,N-ligand framework, specifically the ancillary N-donor group, replacing the pyridine unit for a more rigid quinoline moiety. The reaction of [amino(phenyl)methyl]diphenylphosphine oxide hydrochloride with in situ generated quinoline-2-carboxylic acid chloride smoothly furnished functionalized amide 4, which, in turn, readily underwent direct cyclopalladation, affording Pd(II) pincer complex 5 (Scheme 4). The molecular structure of this palladocycle is presented in Figure 4, while its main geometric parameters are listed in Table S1 in the SI. Unfortunately, complex 5 appeared to be insoluble in common organic solvents and unstable in strongly coordinating media (e.g., DMSO); a possible reason for the stability issues is its highly constrained structure. Therefore, it was withdrawn from the cytotoxicity studies.
A solution of PdCl2(NCPh)2 (70 mg, 0.182 mmol) in CH2Cl2 (4 mL) was added dropwise to a solution of ligand 4 (84 mg, 0.182 mmol) and Et3N (26 μL, 0.186 mmol) in CH2Cl2 (6 mL). The reaction mixture was left under ambient conditions for 1 day and then filtered through a pad of cotton. The filtrate was evaporated to dryness. The resulting residue was washed with Et2O and purified by column chromatography on silica gel (eluent: CHCl3–EtOH (25:1)) to give 60 mg of the target pincer complex as a yellow crystalline solid. Yield: 55%. Mp: >175 °C (dec.). ^31P{^1H} NMR (161.98 MHz, CH2Cl2/D2O): δ 72.32 ppm (the ^1H and ^13C{^1H} NMR spectroscopic data for complex 5 were not obtained due to its low solubility in common organic solvents (e.g., chlorinated hydrocarbons and acetonitrile) and instability in strongly coordinating media (e.g., DMSO)). IR (KBr, ν/cm^–1): 521(w), 534(w), 561(s), 586(w), 699(m), 725(w), 766(w), 852(w), 927(vw), 998(w), 1024(m), 1042(m), 1121(m) (νP=O), 1154(w), 1341(w), 1378(br, m), 1437(m), 1461(w), 1493(w), 1516(w), 1560(w), 1595(w), 1633(s) (νC=O), 2923(vw), 3064(w). […]

Data set [2] relates to HCT116 colorectal carcinoma cells. Kind of data set: MTT cytotoxicity assay, HCT116. The data set is classed as cell-based, human. The note with it: read-out: IC50 ± SD, HCT116. On the procedure: (§1) To characterize the antitumor potential of the resulting Pd(II) pincer complexes, their cytotoxicities against a panel of human solid and hematopoietic cancer cell lines, including colorectal carcinoma (HCT116), breast cancer (MCF7), prostate adenocarcinoma (PC3), glioblastoma (U251), ovarian adenocarcinoma (Scov3), chronic myelogenous leukemia (K562) and its resistant subclone (K562/iS9), multiple plasmacytoma (AMO1), and acute lymphoblastic leukemia (H9) cell lineages, were evaluated using the conventional MTT assay. […] For comparison, the inhibitory effects of the compounds explored on noncancerous human embryonic kidney cells HEK293 as well as transformed breast cells HBL100 and their doxorubicin-resistant analogs HBL100/Dox were also investigated under the same conditions.
(§2) The cytotoxic activity of the compounds explored was investigated on human colorectal carcinoma (HCT116), breast cancer (MCF7), prostate adenocarcinoma (PC3), glioblastoma (U251), ovarian adenocarcinoma (Scov3), chronic myelogenous leukemia (K562 and K562/iS9), multiple plasmacytoma (AMO1), and acute lymphoblastic leukemia (H9) cell lines, as well as human embryonic kidney (HEK293) and mammary epithelial (HBL100 and HBL100/Dox) cells used as representatives of pseudonormal cells. All cell lines were obtained from American Type Culture Collection (ATCC). RPMI-1640 and DMEM media were obtained from Gibco. Fetal bovine serum (FBS) was purchased from HyClone. Cells were cultured in RPMI-1640 or DMEM media supplemented with 10% FBS and 50 μg/mL gentamicin in a humidified incubator with 5% CO2 atmosphere. The cell growth inhibitory effects of the compounds were evaluated using the conventional MTT assay (ICN Biomedicals, Eschwege, Germany). Cells were seeded in triplicate at a cell density of 5 × 10^3/well in 96-well plates in 100 µL complete medium and preincubated for 24 h. The tested compounds were initially dissolved in DMSO. Then, the compounds at various concentrations were added to the media. The well plates were incubated for 48 h followed by addition of MTT solution (Sigma, Darmstadt, Germany) (20 μL, 5 mg/mL). The cells were incubated at 37 °C for further 3 h; then the culture medium was removed, and formazan crystals were dissolved in DMSO (70 μL). The absorbance of the resulting solutions was measured on a multi-well plate reader (Multiskan FC, Thermo scientific) at 530 nm to determine the percentage of surviving cells. The reported values of IC50 are the averages of three independent experiments (Table 2 and Table 3). Cisplatin (in the initial form of an infusion concentrate in natural saline solution) from a commercial source was used as the reference.
(Formazan colour is commonly taken as a measure of viable cells.)

The subject of data set [3] is HEK293 embryonic kidney cells. Kind of data set: MTT cytotoxicity assay, HEK293. The format is cell-based, human. The conditions noted are these: HEK293 noncancerous cells, 48 h exposure, read-out: IC50 ± SD, HEK293. The procedure: as §1, §2
The next data set has as its system MCF7 breast cancer cells. Kind of data set: MTT cytotoxicity assay, MCF7. The format is cell-based, human. The conditions noted are these: for IC50: MCF7, MTT, 48 h exposure, read-out: IC50 ± SD, MCF7. The procedure: as §1, §2
The test system of data set [4] is PC3 prostate adenocarcinoma cells. In words: MTT cytotoxicity assay, PC3. The data set is classed as cell-based, human. The note with it: 48 h exposure, read-out: IC50 ± SD, PC3. On the procedure:
as §1, §2

The test system of data set [5] is AMO1 multiple plasmacytoma cells. Kind of data set: MTT cytotoxicity assay, AMO1. The data set is classed as cell-based, human. The note with it: for IC50: AMO1, MTT, 48 h exposure, read-out: IC50 ± SD, AMO1. On the procedure: as §1, §2
Data set [6] relates to Scov3 ovarian adenocarcinoma cells. Kind of data set: MTT cytotoxicity assay, Scov3. The data set is classed as cell-based, human. The conditions noted are these: Scov3, MTT, 48 h exposure, read-out: IC50 ± SD, Scov3. On the procedure: as §1, §2
Data set [7] relates to K562/iS9 resistant chronic myelogenous leukemia cells. In words: MTT cytotoxicity assay, K562/iS9. The data set is classed as cell-based, human. The conditions noted are these: read-out: IC50 ± SD, K562/iS9. The procedure: as §1, §2
For data set [8], the system named is K562 chronic myelogenous leukemia cells. Kind of data set: MTT cytotoxicity assay, K562. The data set is classed as cell-based, human. The note with it: 48 h exposure, read-out: IC50 ± SD, K562. On the procedure: as §1, §2
The test system of the next data set is U251 glioblastoma cells. In words: MTT cytotoxicity assay, U251. The data set is classed as cell-based, human. The conditions noted are these: read-out: IC50 ± SD, U251. On the procedure: as §1, §2
In data set [9] the test system is HBL100 mammary epithelial cells. Kind of data set: MTT cytotoxicity assay, HBL100. The data set is classed as cell-based, human. The conditions noted are these: read-out: IC50 ± SD, HBL100. On the procedure:
as §1, §2

Data set [10] relates to HBL100/Dox doxorubicin-resistant mammary epithelial cells. Kind of data set: MTT cytotoxicity assay, HBL100/Dox. The format is cell-based, human. The note with it: for IC50: MTT, 48 h exposure, read-out: IC50 ± SD, HBL100/Dox. The procedure: as §1, §2
A short description of data set [11]: 31P NMR stability study in CDCl3–(CD3)2SO mixture. The note with it: commensurable decomposition degree reached only in a week. The data set is classed as physicochemical. The procedure:
(§3) The observed dependences correlate well with our previous findings on the lability of the phosphoryl sites in palladocycles 2a,b, 3a,b and can be rationalized in terms of their coordination behavior. […] However, the presence of an additional competitive chloride anion makes complex 2b potentially more susceptible to decoordination of the phosphoryl arm. […] At least the N,N-bidentately bound core remained intact in the mentioned media over a period of 48 h.

Data set [12] deals with H9 acute lymphoblastic leukemia cells. Kind of data set: MTT cytotoxicity assay, H9. The data set is classed as cell-based, human. The note with it: 48 h exposure, read-out: IC50 ± SD, H9. The procedure: as §1
as §2, with “Then, the compounds at various concentrations were added to the media. The well plates were incubated for 48 h followed by addition of MTT solution (Sigma, Darmstadt, Germany) (20 μL, 5 mg/mL). The cells were incubated at 37 °C for further 3 h; then the culture medium was removed, and formazan crystals were dissolved in DMSO (70 μL).” left out, “The reported values of IC50 are the averages of three independent experiments (Table 2 and Table 3). Cisplatin (in the initial form of an infusion concentrate in natural saline solution) from a commercial source was used as the reference.” left out

In the next data set the test system is K562 cells. Kind of data set: MTT assay with complexes preliminarily kept in DMSO–RPMI 1640, K562. The conditions noted are these: K562, kept in DMSO–RPMI 1640 (1/10 by volume) for 48 h before experiment, 72 h incubation. The data set is classed as cell-based, human. The procedure:
as §3
(§4) Figure S51. Effect of complexes 2b (a) and 3b (b) dissolved either in neat DMSO or DMSO–RPMI 1640 mixture on AMO1 and K562 cells (cell viability was defined by the conventional MTT assay according to the methodology described in the Experimental section with slight modifications: the complexes explored were preliminarily kept in neat DMSO or DMSO–RPMI 1640 mixture for 2 days before the experiments and the following incubation period […]

The next data set deals with AMO1 cells. Kind of data set: MTT assay with complexes preliminarily kept in DMSO–RPMI 1640, AMO1. The note with it: AMO1, kept in DMSO–RPMI 1640 (1/10 by volume) for 48 h before experiment, 72 h incubation. The format is cell-based, human. On the procedure:
as §3, §4

Read-outs that look alike come from different tables or passages of the source.

Regarding `O=C(c1ccc2ccccc2n1)[N]([Pd][Cl])C(c1ccccc1)P(=O)(c1ccccc1)c1ccccc1` (stereo not drawn) [complex 5, [κ^3-O,N,N-(L)Pd(II)Cl]], in data set [1] (common organic solvents), the “solubility in common organic solvents” value is recorded as “insoluble”. In [1], the “stability in DMSO” value is listed as “unstable”.

As to `O=C(c1cccc2cccnc12)[N](CP(=O)(c1ccccc1)c1ccccc1)[Pd][Cl]` [complex 7, [κ^3-O,N,N-(L)Pd(II)Cl]], the IC50 in [2] (48 h exposure) amounted to 38 ± 6 µM; in data set [3] it was 23 ± 3 µM; with MCF7 breast cancer cells it was 58 ± 12 µM; in data set [4], 52 ± 10 µM. In addition, the “stability in DMSO” value in data set [1] is recorded as “stable”.

With `N.N.[Cl][Pt][Cl]` [Cisplatin, reference compound], the IC50 in [5] amounted to 3.2 ± 0.6 µM; in data set [6], 21 ± 3 µM; in data set [7] (48 h exposure) it was 16 ± 2 µM; in data set [2] (48 h exposure) it was 18 ± 2 µM; in data set [3], 12.5 ± 1.5 µM; in the data set with MCF7 breast cancer cells, 25 ± 4 µM. Further, the IC50 in data set [4] was 16 ± 3 µM; in [8] it was 15.5 ± 0.5 µM; in the data set with U251 glioblastoma cells (48 h exposure), 16.5 ± 1.5 µM; in data set [9] (48 h exposure), 14.6 ± 3.6 µM; in data set [10], 23.6 ± 3.6 µM.

As to `O=C(c1ccccn1)[N]([Pd][Cl])C(c1ccccc1)P(=O)(c1ccccc1)c1ccccc1` (stereo not drawn) [complex 3b, [κ^3-O,N,N-(L)Pd(II)Cl]], the “stability in CDCl3–(CD3)2SO mixture” value in data set [11] is listed as “quite stable”. Further, the IC50 stood at 2.7 ± 0.5 µM in data set [5]; 40 ± 0.6 µM in [6]; 3.2 ± 0.2 µM in data set [12]; 7.2 ± 1 µM in [7] (48 h exposure); 4 ± 2 µM in data set [2] (48 h exposure); 12.5 ± 3.5 µM in [3]. Besides, the IC50 came to 13 ± 1.5 µM in the data set on MCF7 breast cancer cells; 16 ± 2 µM in data set [4]; 6.4 ± 0.4 µM in data set [8]; 43 ± 5 µM in the data set on U251 glioblastoma cells (48 h exposure); 17.8 ± 0.8 µM in data set [9] (48 h exposure); 28 ± 2.6 µM in [10]. Also, the “cytotoxic activity after keeping in DMSO–RPMI 1640 mixture vs neat DMSO” value in the data set with K562 cells and with AMO1 cells was “comparable” throughout.

Turning to `O=C(NCP(=O)(c1ccccc1)c1ccccc1)c1ccccn1` [ligand 1a, N-[(Diphenylphosphoryl)methyl]picolinamide], the “percentage of live cells” value in data set [5] (AMO1, compound concentration 80.0 μM, 48 h) was 41% ^3; in the data set on MCF7 breast cancer cells (MCF7, compound concentration 100.0 μM, 48 h) it was 46% ^3; in data set [10] (compound concentration 100.0 μM, 48 h), 35% ^3. The IC50 in [6] (Homo sapiens) is above 100 µM; in data set [12] (Homo sapiens), above 80 µM; in data set [7] (Homo sapiens, K562i/S9, 48 h exposure) it was above 80 µM; in data set [2] (Homo sapiens, HCT-116, 48 h exposure), above 100 µM; in data set [3] (Homo sapiens) it was above 100 µM; in data set [4] (Homo sapiens) it was above 100 µM. Besides, the IC50 in [8] (Homo sapiens) is above 80 µM; with U251 glioblastoma cells (Homo sapiens, U-251, 48 h exposure), above 100 µM; in data set [9] (Homo sapiens, HBL-100, 48 h exposure) it was above 100 µM.

Values taken from publication PMC10146186, “Modulation of the Cytotoxic Properties of Pd(II) Complexes Based on Functionalized Carboxamides Featuring Labile Phosphoryl Coordination Sites” (Pharmaceutics, 2023).
